Experimental data reported in ChEMBL document CHEMBL1201862, “PubChem BioAssay data set” (2004).
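The compound was tested at five concentrations on cells cultured in 96-well plates, with a 48-hour exposure period. GI50 is the concentration that inhibits growth by half.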 Activity calls are given as the source filed them. Cut-off read from the data, not from the text of the source: active = GI50 up to about 1.1 µM and inactive = higher.

Legend:
Assay in all cases: NCI tumour cell line growth inhibition, 48 h
CCRF-CEM = test system: CCRF-CEM
NCI-H226 = test system: NCI-H226
UO-31 = test system: UO-31
U-251 = test system: U-251
OVCAR-4 = test system: OVCAR-4
OVCAR-5 = test system: OVCAR-5
HL-60 = test system: HL-60
K562 = test system: K562
HOP-62 = test system: HOP-62
SK-MEL-5 = test system: SK-MEL-5
MDA-N = test system: MDA-N
A498 = test system: A498
MCF7 = test system: MCF7
SK-MEL-2 = test system: SK-MEL-2
LOX IMVI = test system: LOX IMVI
RPMI-8226 = test system: RPMI-8226
OVCAR-3 = test system: OVCAR-3
SR = test system: SR
T47D = test system: T47D
SN12C = test system: SN12C

Structure (SMILES)	GI50 (CCRF-CEM)	GI50 (NCI-H226)	GI50 (UO-31)	GI50 (U-251)	GI50 (OVCAR-4)	GI50 (OVCAR-5)	GI50 (HL-60)	GI50 (K562)	GI50 (HOP-62)	GI50 (SK-MEL-5)	GI50 (MDA-N)	GI50 (A498)	GI50 (MCF7)	GI50 (SK-MEL-2)	GI50 (LOX IMVI)	GI50 (RPMI-8226)	GI50 (OVCAR-3)	GI50 (SR)	GI50 (T47D)	GI50 (SN12C)
C/C(=N/CC(=O)O)c1ccccc1	27.8 µM (inactive)	> 100 µM (inactive)	97.5 µM (inactive)	> 100 µM (inactive)	> 100 µM (inactive)	> 100 µM (inactive)	35.9 µM (inactive)	> 100 µM (inactive)	> 100 µM (inactive)	89.5 µM (inactive)	> 100 µM (inactive)	> 100 µM (inactive)	> 100 µM (inactive)	> 100 µM (inactive)	> 100 µM (inactive)	> 100 µM (inactive)	> 100 µM (inactive)	65 µM (inactive)	> 100 µM (inactive)	> 100 µM (inactive)
CC(=O)c1cc2ccccc2[n+]([O-])c1N	> 100 µM (inactive)	> 100 µM (inactive)		> 100 µM (inactive)	> 100 µM (inactive)	> 100 µM (inactive)	> 100 µM (inactive)		> 100 µM (inactive)	> 100 µM (inactive)	> 100 µM (inactive)	> 100 µM (inactive)	> 100 µM (inactive)	> 100 µM (inactive)	> 100 µM (inactive)		> 100 µM (inactive)	> 100 µM (inactive)	> 100 µM (inactive)	> 100 µM (inactive)
CCOC(CNCCC(=O)OC)OCC	> 10 µM (inactive)	> 10 µM (inactive)	> 10 µM (inactive)	> 10 µM (inactive)	> 10 µM (inactive)		> 10 µM (inactive)	> 10 µM (inactive)	> 10 µM (inactive)	> 10 µM (inactive)	> 10 µM (inactive)	> 10 µM (inactive)	> 10 µM (inactive)	> 10 µM (inactive)	> 10 µM (inactive)	> 10 µM (inactive)	> 10 µM (inactive)	> 10 µM (inactive)	> 10 µM (inactive)	> 10 µM (inactive)
O=C(O)c1ccc(C(c2c(O)oc3ccccc3c2=O)c2c(O)oc3ccccc3c2=O)cc1	25.2 µM (inactive)		14.2 µM (inactive)	> 100 µM (inactive)		86.3 µM (inactive)	0.0397 µM (active)	15.5 µM (inactive)	43 µM (inactive)	> 100 µM (inactive)	> 100 µM (inactive)	2.92 µM (inactive)	> 100 µM (inactive)	> 100 µM (inactive)	> 100 µM (inactive)	1.02 µM (active)	> 100 µM (inactive)	44.3 µM (inactive)	> 100 µM (inactive)	> 100 µM (inactive)
CC1(C)CC(=O)C2=C(C1)c1c(ccc3ccccc13)NC2c1cn(Cc2ccc(Cl)cc2)c2ccccc12 (stereo unspecified)	55.7 µM (inactive)		> 100 µM (inactive)	56.8 µM (inactive)	> 100 µM (inactive)	36.5 µM (inactive)	37.8 µM (inactive)	50.9 µM (inactive)	40.9 µM (inactive)	> 100 µM (inactive)	> 100 µM (inactive)	2.55 µM (inactive)	> 100 µM (inactive)	> 100 µM (inactive)	38.7 µM (inactive)	> 100 µM (inactive)	18.7 µM (inactive)	11.2 µM (inactive)	7.19 µM (inactive)	> 100 µM (inactive)
CC(=O)/C(=N\N=C(N)N)c1ccccc1		> 100 µM (inactive)	> 100 µM (inactive)	> 100 µM (inactive)	> 100 µM (inactive)	> 100 µM (inactive)		> 100 µM (inactive)	> 100 µM (inactive)	> 100 µM (inactive)	> 100 µM (inactive)	> 100 µM (inactive)	> 100 µM (inactive)	> 100 µM (inactive)	> 100 µM (inactive)	> 100 µM (inactive)	> 100 µM (inactive)	> 100 µM (inactive)	73.1 µM (inactive)	> 100 µM (inactive)
COC(=O)c1c(O)ccc2c1c1c(n2Cc2ccccc2Cl)C(=O)c2ccccc2C1=O	8.38 µM (inactive)	17.7 µM (inactive)	10.9 µM (inactive)	12.6 µM (inactive)	2.93 µM (inactive)	19.5 µM (inactive)	16.9 µM (inactive)	14.3 µM (inactive)	26 µM (inactive)	12.5 µM (inactive)	12.8 µM (inactive)	16.5 µM (inactive)	6.73 µM (inactive)	17.4 µM (inactive)		5.98 µM (inactive)	10 µM (inactive)	14.6 µM (inactive)	7.01 µM (inactive)	10.2 µM (inactive)
CC1(C)C(C(=O)OC(C#N)c2cccc(OCC(=O)OCc3ccccc3)c2)C1(C)C (stereo unspecified)	19.5 µM (inactive)	> 100 µM (inactive)	> 100 µM (inactive)	> 100 µM (inactive)	> 100 µM (inactive)	> 100 µM (inactive)	2.3 µM (inactive)	2.36 µM (inactive)	> 100 µM (inactive)	> 100 µM (inactive)	> 100 µM (inactive)	> 100 µM (inactive)	53 µM (inactive)	20.4 µM (inactive)	95.7 µM (inactive)		> 100 µM (inactive)	0.251 µM (active)	45.8 µM (inactive)	> 100 µM (inactive)
C#CCOC(=O)[C@@H](C)c1ccc2cc(OC)ccc2c1	31.1 µM (inactive)	> 100 µM (inactive)	94 µM (inactive)	> 100 µM (inactive)	96.8 µM (inactive)	> 100 µM (inactive)	15.1 µM (inactive)	44.8 µM (inactive)	> 100 µM (inactive)	40.9 µM (inactive)	> 100 µM (inactive)	> 100 µM (inactive)	63.8 µM (inactive)	> 100 µM (inactive)	70.1 µM (inactive)	29.5 µM (inactive)		17.3 µM (inactive)	> 100 µM (inactive)	> 100 µM (inactive)
Brc1ccc(C2(N3CCCCC3)CCCCC2)s1	18.3 µM (inactive)		30.8 µM (inactive)	33.1 µM (inactive)	40.7 µM (inactive)	67 µM (inactive)	19.4 µM (inactive)	21.1 µM (inactive)	57.5 µM (inactive)	0.561 µM (active)	79.8 µM (inactive)	66.7 µM (inactive)	30.9 µM (inactive)	19 µM (inactive)	11.7 µM (inactive)	19.6 µM (inactive)	38.7 µM (inactive)	19.5 µM (inactive)	11.9 µM (inactive)	> 100 µM (inactive)
O=C(O)Cn1ccnc1[N+](=O)[O-]	> 100 µM (inactive)	> 100 µM (inactive)	> 100 µM (inactive)	> 100 µM (inactive)	> 100 µM (inactive)	> 100 µM (inactive)	> 100 µM (inactive)	> 100 µM (inactive)	> 100 µM (inactive)	> 100 µM (inactive)	> 100 µM (inactive)	> 100 µM (inactive)	> 100 µM (inactive)	> 100 µM (inactive)		> 100 µM (inactive)	> 100 µM (inactive)	> 100 µM (inactive)	> 100 µM (inactive)	> 100 µM (inactive)
Clc1sc(Cl)c2c1[C@H](Cl)C[C@@H]2Cl	6.82 µM (inactive)	19.8 µM (inactive)	14.6 µM (inactive)	20.9 µM (inactive)	23.6 µM (inactive)	29.2 µM (inactive)		6 µM (inactive)	38.5 µM (inactive)	32.4 µM (inactive)	20.6 µM (inactive)	84.1 µM (inactive)	6.52 µM (inactive)	22.5 µM (inactive)	9.46 µM (inactive)		24.2 µM (inactive)	58.9 µM (inactive)	17.6 µM (inactive)	16.8 µM (inactive)
O=C(CN1CCCC1)Nc1ccc2c(c1)C1Oc3ccccc3CC1CO2 (stereo unspecified)	47.2 µM (inactive)	> 100 µM (inactive)	22.1 µM (inactive)	21.2 µM (inactive)		30.9 µM (inactive)	46.6 µM (inactive)	38.6 µM (inactive)	19.7 µM (inactive)	14.6 µM (inactive)	31.2 µM (inactive)	> 100 µM (inactive)	17.3 µM (inactive)	23.9 µM (inactive)	21.4 µM (inactive)	25.1 µM (inactive)	57.5 µM (inactive)	33.3 µM (inactive)	40.1 µM (inactive)	> 100 µM (inactive)
CC[C@H](C)[C@@H]([C@@H](CC(=O)N1CCC[C@H]1[C@H](OC)[C@@H](C)C(=O)NCCc1ccccc1)OC)N(C)C(=O)C(NC(=O)[C@H](C(C)C)N(C)C)C(C)C (stereo partly specified)	0.000219 µM (active)	0.00064 µM (active)	0.00103 µM (active)	0.000251 µM (active)	0.00094 µM (active)		7.02e-05 µM (active)	6.68e-05 µM (active)	0.000235 µM (active)	4.18e-05 µM (active)	3.46e-05 µM (active)	0.000266 µM (active)	4.54e-05 µM (active)	0.000423 µM (active)	0.000299 µM (active)	0.000203 µM (active)	4.09e-05 µM (active)	2.57e-05 µM (active)	> 10 µM (inactive)	0.000361 µM (active)
O=C(NCCCc1cn[nH]c(=O)n1)c1cccc2nc3ccccc3nc12	> 100 µM (inactive)	> 100 µM (inactive)		36.5 µM (inactive)	> 100 µM (inactive)	> 100 µM (inactive)	> 100 µM (inactive)	> 100 µM (inactive)	47.8 µM (inactive)	> 100 µM (inactive)	> 100 µM (inactive)	> 100 µM (inactive)	> 100 µM (inactive)	> 100 µM (inactive)	> 100 µM (inactive)	> 100 µM (inactive)	> 100 µM (inactive)	40.6 µM (inactive)	> 100 µM (inactive)	86.3 µM (inactive)
